Blank lines part the entries; values can stand above or below the compound they belong to.
Columns and labels:
Assay type in all cases: cell-based
hTLR8 = target: T1, hTLR8 (Homo sapiens, UniProt Q9NR97); assay: hTLR8 agonistic activity, HEK-Blue hTLR8 SEAP reporter gene assay; details: for EC50: HEK-Blue hTLR8 cells, SEAP reporter, about 16 hours incubation, read-out: TLR8 EC50; for Ratio of TLR8 EC50 and TLR7 EC50: TLR8 EC50 / TLR7 EC50, HEK-Blue reporter cells
T1 construct: expressed in transfected cells; host or cells: HEK-Blue hTLR8 cells
T1 sequence (Q9NR97 27-1041): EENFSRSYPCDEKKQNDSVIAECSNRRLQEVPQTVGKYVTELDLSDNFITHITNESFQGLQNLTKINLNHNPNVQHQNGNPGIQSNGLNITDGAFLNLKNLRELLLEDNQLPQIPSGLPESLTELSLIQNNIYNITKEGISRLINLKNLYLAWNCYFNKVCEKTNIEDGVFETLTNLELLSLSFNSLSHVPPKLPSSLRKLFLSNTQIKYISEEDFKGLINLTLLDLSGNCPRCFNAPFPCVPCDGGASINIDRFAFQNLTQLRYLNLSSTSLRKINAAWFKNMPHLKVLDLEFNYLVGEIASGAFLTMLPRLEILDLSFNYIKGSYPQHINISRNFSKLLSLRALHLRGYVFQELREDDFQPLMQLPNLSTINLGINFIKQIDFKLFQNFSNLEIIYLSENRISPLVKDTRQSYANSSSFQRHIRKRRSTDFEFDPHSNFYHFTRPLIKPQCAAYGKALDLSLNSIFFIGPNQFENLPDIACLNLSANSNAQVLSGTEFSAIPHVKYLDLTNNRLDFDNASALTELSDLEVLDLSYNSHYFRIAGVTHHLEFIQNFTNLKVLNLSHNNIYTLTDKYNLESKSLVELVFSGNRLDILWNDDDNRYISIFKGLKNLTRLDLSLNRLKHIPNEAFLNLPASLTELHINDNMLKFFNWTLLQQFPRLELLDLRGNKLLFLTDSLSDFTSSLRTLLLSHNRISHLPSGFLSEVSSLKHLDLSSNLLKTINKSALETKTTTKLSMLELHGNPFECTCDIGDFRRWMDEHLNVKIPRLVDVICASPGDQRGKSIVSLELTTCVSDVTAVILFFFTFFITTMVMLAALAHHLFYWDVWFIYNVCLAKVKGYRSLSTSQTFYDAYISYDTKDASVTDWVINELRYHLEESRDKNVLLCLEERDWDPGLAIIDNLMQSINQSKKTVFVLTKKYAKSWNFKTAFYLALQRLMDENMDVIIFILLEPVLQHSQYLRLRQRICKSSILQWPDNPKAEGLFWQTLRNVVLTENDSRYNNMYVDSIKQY
Method: To analyze the hTLR8 agonistic activity, HEK-Blue hTLR8 cells transfected with SEAP reporter were seeded at 3×10^4 cell/well. […] The HEK-Blue hTLR8 cells served to measure the bioactivity of TLR8 through the SEAP upon NF-κB activation following TLR8 stimulation.
(§1) In the SEAP reporter gene assay as described above, water was used as a negative control. […] The dose-response curves were fit with four parameter logistic curves (SigmaPlot, version 9.0). The EC50-values of the test compounds and reference compounds were calculated.

hTLR7 = target: T2, hTLR7 (Homo sapiens, UniProt Q9NYK1); assay: hTLR7 agonistic activity, HEK-Blue hTLR7 SEAP reporter gene assay; details: for EC50: HEK-Blue hTLR7 cells, SEAP reporter, about 16 hours incubation, read-out: TLR7 EC50
T2 construct: expressed in transfected cells; host or cells: HEK-Blue hTLR7 cells
T2 sequence (Q9NYK1 27-1049): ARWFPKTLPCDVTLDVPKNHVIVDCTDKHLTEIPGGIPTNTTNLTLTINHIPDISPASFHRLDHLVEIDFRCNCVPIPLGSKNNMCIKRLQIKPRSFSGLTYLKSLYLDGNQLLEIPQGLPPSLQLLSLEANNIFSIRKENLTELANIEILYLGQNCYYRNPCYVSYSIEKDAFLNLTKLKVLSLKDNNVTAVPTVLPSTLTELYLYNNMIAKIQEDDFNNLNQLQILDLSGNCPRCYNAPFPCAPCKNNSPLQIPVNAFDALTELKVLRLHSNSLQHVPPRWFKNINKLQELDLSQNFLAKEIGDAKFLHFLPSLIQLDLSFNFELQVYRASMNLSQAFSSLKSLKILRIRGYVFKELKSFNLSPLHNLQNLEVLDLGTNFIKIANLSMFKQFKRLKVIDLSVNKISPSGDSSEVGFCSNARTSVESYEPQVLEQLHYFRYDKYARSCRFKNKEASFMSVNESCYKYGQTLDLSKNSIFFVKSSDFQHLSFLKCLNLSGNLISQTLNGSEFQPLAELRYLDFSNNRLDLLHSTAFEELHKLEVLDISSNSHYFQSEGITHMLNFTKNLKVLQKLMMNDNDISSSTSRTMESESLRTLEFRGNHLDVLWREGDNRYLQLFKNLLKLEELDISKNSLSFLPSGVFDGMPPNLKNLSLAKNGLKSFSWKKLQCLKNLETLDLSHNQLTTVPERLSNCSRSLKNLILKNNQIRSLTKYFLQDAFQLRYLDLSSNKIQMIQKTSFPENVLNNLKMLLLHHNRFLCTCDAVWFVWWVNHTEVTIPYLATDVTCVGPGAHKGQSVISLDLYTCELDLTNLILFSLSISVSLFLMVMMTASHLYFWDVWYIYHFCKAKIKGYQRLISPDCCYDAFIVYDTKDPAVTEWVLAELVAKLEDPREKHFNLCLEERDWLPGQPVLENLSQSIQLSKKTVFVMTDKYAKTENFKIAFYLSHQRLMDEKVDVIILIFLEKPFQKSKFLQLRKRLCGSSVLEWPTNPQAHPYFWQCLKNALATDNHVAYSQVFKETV
Method: To analyze the hTLR7 agonistic activity, HEK-Blue hTLR7 cells transfected with secreted embryonic alkaline phosphatase (SEAP) reporter were seeded at 3×10^4 cell/well. […] The SEAP reporter is designed specifically for measuring secreted placental AP (alkaline phosphatase) in conditioned cell culture medium from transfected cells. The HEK-Blue hTLR7 cells served to measure the bioactivity of TLR7 through SEAP upon NF-κB activation following TLR7 stimulation.
as §1

human PBMCs [1] = assay: Ex vivo cytokine profile: IP-10 induction from human PBMCs; details: human PBMCs stimulated 24 h, normalized to baseline; FIGS. 3A-C
Method: (§2) Three test compounds (Compound Nos. 2, 9, 10) were used to evaluate the effect on cytokine induction.
(§3) Cryopreserved human PBMCs from 4 normal adult volunteers were purchased from EPBMC® (IMMUNOSPOT®). The PBMCs were thawed at 37° C. for 10 minutes and centrifuged at 300×g at room temperature for 5 minutes. The pelleted PBMCs were transferred to RPMI-1640 medium containing 10% FBS, 1% PSA and incubated at 37° C. with 5% CO2.
(§4) The test compounds and reference compounds were respectively dissolved in DMSO and subsequently 25-fold diluted with PBS to make stock solutions at a concentration of 0.1 mM. The preincubated PBMCs were harvested and resuspended in a fresh RPMI-1640 medium containing 10% FBS and 1% PSA. Approximately 1×10^3 PBMCs were added to each well of 96-well plates and stimulated with 0, 20 or 1000 nM of test compounds for 24 h at 37° C. in a 5% CO2 humidified incubator. The culture supernatant was stocked at −20° C. for analysis of TLR7- and TLR8-mediated cytokine induction. PROCARTAPLEX™ Immunoassay (Invitrogen) was performed to quantify human IL-6, IL-12p70, IP-10 in the culture supernatant according to the manufacturer's instructions. Briefly, the culture supernatant samples were thawed on ice and transferred to a microtiter plate. Magnetic bead-coupled antibodies specific to the target cytokines were added to the samples for analyte capturing. The immobilized target cytokine was specifically detected by biotin-conjugated antibodies and then labelled with streptavidin-Phycoerythrin (PE). The PE-labelled magnetic beads were detected and identified by LUMINEX™ 200™ analyzer. Data acquisition, processing and analysis was conducted by using XPONENT™ 3.1 software. The target cytokines were normalized to their baseline cytokine levels and presented as relative cytokines.

human PBMCs [2] = assay: Ex vivo cytokine profile: IL-12p70 induction from human PBMCs; details: human PBMCs stimulated 24 h, normalized to baseline; FIGS. 2A-C
Method: as §2, §3, §4

human PBMCs [3] = assay: Ex vivo cytokine profile: IL-6 induction from human PBMCs; details: human PBMCs stimulated 24 h, normalized to baseline; FIGS. 1A-C
Method: Cryopreserved human PBMCs from 4 normal adult volunteers were purchased from EPBMC® (IMMUNOSPOT®). The PBMCs were thawed at 37° C. for 10 minutes and centrifuged at 300×g at room temperature for 5 minutes.
as §4, with “The preincubated PBMCs were harvested and resuspended in a fresh RPMI-1640 medium containing 10% FBS and 1% PSA.” left out

SMILES: CCCc1nc2c(N)nc3ccccc3c2n1CC(C)(C)O [Compound 1, 1-(4-amino-2-propyl-1H-imidazo[4,5-c]quinolin-1-yl)-2-methylpropan-2-ol]
EC50 (hTLR8): 5299 ± 14.4 nM | Ratio of TLR8 EC50 and TLR7 EC50 (hTLR8): 22.36 | EC50 (hTLR7): 237 ± 7.4 nM

SMILES: CC(C)(O)Cn1c(CCCCC(F)(F)F)nc2c(N)nc3ccccc3c21 [Compound 10, 1-(4-amino-2-(5,5,5-trifluoropentyl)-1H-imidazo[4,5-c]quinolin-1-yl)-2-methylpropan-2-ol]
relative IP-10 induction (human PBMCs [1]): high IP-10 induction activity | relative IL-12p70 induction (human PBMCs [2]): high IL-12p70 induction activity | EC50 (hTLR8): 4746 ± 20.5 nM | Ratio of TLR8 EC50 and TLR7 EC50 (hTLR8): 8.74 | EC50 (hTLR7): 543 ± 29.4 nM | relative IL-6 induction (human PBMCs [3]): low IL-6 induction activity

SMILES: CCCN(CCC)C(=O)C1=Cc2ccc(-c3ccc(C(=O)N4CCCC4)cc3)cc2N=C(N)C1 [Ref. 3, VTX2337, reference compound]
relative IL-6 induction (human PBMCs [3]): low IL-6 induction activity

Further lines, with some results ahead:

EC50 (hTLR8): 267 ± 13.5 nM | Ratio of TLR8 EC50 and TLR7 EC50 (hTLR8): 3.98 | TLR7 and TLR8 dual agonistic activity (in words) (hTLR7; HEK-Blue hTLR7 and hTLR8 reporter cells, summary of Table 1): the most potent TLR7/8 dual agonist | EC50 (hTLR7): 67.1 ± 8.3 nM
SMILES: CCCCCc1nc2c(N)nc3ccccc3c2n1CC(C)(C)O [Compound 2, 1-(4-amino-2-pentyl-1H-imidazo[4,5-c]quinolin-1-yl)-2-methylpropan-2-ol]
relative IP-10 induction (human PBMCs [1]): high IP-10 induction activity | relative IL-12p70 induction (human PBMCs [2]): high IL-12p70 induction activity | relative IL-6 induction (human PBMCs [3]): low IL-6 induction activity

EC50 (hTLR8): 965 ± 14.7 nM | Ratio of TLR8 EC50 and TLR7 EC50 (hTLR8): 7.49 | EC50 (hTLR7): 129 ± 10.9 nM
SMILES: CC(C)(O)Cn1c(CCCC(F)(F)F)nc2c(N)nc3ccccc3c21 [Compound 9, 1-(4-amino-2-(4,4,4-trifluorobutyl)-1H-imidazo[4,5-c]quinolin-1-yl)-2-methylpropan-2-ol]
relative IP-10 induction (human PBMCs [1]): high IP-10 induction activity | relative IL-12p70 induction (human PBMCs [2]): high IL-12p70 induction activity | relative IL-6 induction (human PBMCs [3]): low IL-6 induction activity
